This passage reports inhibition results from US12084436B2, “Heterocyclic compound” (Takeda Pharmaceutical Company Limited, priority 2019, dated 2024).

The assay concerns the target T1, HDAC6 enzyme (Homo sapiens, UniProt Q9UBN7).
T1 construct: prepared by transducing full length HDAC6 gene into Sf-9 insect cells; GST; purchased SignalChem; host or cells: Sf-9 insect cells
T1 sequence (Q9UBN7 1-1215): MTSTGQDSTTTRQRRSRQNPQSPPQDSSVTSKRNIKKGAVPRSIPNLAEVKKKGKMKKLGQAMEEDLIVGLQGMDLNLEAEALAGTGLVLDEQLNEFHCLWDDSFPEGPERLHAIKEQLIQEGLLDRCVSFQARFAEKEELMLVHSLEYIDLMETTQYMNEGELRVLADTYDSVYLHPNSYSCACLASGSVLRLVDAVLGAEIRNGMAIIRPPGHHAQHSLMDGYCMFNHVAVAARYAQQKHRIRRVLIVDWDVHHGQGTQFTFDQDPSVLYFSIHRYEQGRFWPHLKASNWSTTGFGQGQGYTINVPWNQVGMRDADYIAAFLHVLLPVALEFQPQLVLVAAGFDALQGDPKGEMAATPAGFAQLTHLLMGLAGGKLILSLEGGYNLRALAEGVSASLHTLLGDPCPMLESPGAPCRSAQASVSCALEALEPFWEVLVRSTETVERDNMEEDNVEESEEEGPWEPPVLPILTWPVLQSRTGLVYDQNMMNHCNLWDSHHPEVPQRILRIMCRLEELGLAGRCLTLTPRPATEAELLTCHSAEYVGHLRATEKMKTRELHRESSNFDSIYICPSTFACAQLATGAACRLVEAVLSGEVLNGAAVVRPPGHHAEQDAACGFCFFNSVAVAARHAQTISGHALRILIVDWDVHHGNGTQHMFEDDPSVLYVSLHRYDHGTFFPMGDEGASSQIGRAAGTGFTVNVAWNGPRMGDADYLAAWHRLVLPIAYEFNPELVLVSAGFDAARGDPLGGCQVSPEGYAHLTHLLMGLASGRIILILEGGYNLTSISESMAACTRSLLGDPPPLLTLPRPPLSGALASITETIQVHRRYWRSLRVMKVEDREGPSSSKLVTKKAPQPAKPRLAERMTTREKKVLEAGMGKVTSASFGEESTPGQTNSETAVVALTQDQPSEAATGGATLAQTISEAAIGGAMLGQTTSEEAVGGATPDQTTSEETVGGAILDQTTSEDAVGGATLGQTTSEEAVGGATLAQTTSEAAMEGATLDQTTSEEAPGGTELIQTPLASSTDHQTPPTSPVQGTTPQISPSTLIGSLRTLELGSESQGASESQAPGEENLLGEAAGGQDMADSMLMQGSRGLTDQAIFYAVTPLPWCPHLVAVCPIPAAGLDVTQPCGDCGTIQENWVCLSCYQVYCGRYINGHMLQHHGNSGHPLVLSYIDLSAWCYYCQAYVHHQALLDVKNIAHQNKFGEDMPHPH
As to the kind of experiment: HDAC6 enzyme inhibitory assay (HDAC-Glo I/II Assay kit, luminescence). The format is biochemical. The conditions noted are these: 10 μM test compound; wells without enzyme = 100% inhibition; read-out: HDAC6 inhibitory rate (%) (10 μM). As to the method:
HDAC6 Enzyme Inhibitory Assay
HDAC6 enzyme prepared by transducing full length HDAC6 gene into Sf-9 insect cells and purifying by GST affinity column were purchased from SignalChem. Using this enzyme, HDAC6 enzyme inhibitory activities of the compound of the present invention were evaluated. Enzymes were used after preserved at −70° C. HDAC6 enzyme inhibitory activity of the compound of the present invention was measured using HDAC-Glo™ I/II Assay kit (Promega) according to the following experimental method. The test compound diluted with assay buffer (24 mM Tris-HCl (pH 7.5), 1 mM MgCl2, 0.35 mM KCl, 135 mM NaCl, 0.6 mM Glutathione, 0.01% Tween-20) was added to a 384-well plate by each 2 μL. Then, HDAC6 enzyme solution diluted with assay buffer was added thereto by each 4 μL, and the plate was incubated at room temperature for 60 min. After incubated, HDAC substrate-Developer solution prepared according to Promega protocol attached to the assay kit was added to the 384-well plate by each 2 μL, and the enzyme reaction was started. After reacting at room temperature for 20 min, luminescence level was measured using plate reader Envision (PerkinElmer). The inhibitory activity of each compound of Example was calculated as a relative activity value when luminescence level in wells without enzyme is considered as 100% inhibition.

As for `Fc1cc(-c2nnc(C(F)F)o2)cc(-c2ncccc2OCc2ccccc2)c1` [Example 5a, 3-(benzyloxy)-2-{3-[5-(difluoromethyl)-1,3,4-oxadiazol-2-yl]-5-fluorophenyl}pyridine], the inhibition at 10 µM was found to be 98%. In the case of `O=C1c2cc(-c3nnc(C(F)F)o3)ccc2OCN1Cc1ccccc1` [Example 5b, 3-benzyl-6-[5-(difluoromethyl)-1,3,4-oxadiazol-2-yl]-2,3-dihydro-4H-1,3-benzoxazin-4-one], the inhibition at 10 µM was 71%. For the compound `CC(C)CN(C(=O)OC(C)(C)C)N1Cc2ccc(-c3nnc(C(F)F)o3)cc2C1=O` [Example 5c, tert-butyl {6-[5-(difluoromethyl)-1,3,4-oxadiazol-2-yl]-1-oxo-1,3-dihydro-2H-isoindol-2-yl}(2-methylpropyl)carbamate], the inhibition at 10 µM amounted to 99%. Turning to `Fc1cc(-c2nnc(C(F)F)o2)cc(-c2nccn2Cc2ccccn2)c1` [Example 6a], the inhibition at 10 µM stood at 99%. As for `CN1C(=O)c2cc(-c3nnc(C(F)F)o3)ccc2O[C@]1(C)c1ccccc1` [Example 6b, (2R)-6-[5-(difluoromethyl)-1,3,4-oxadiazol-2-yl]-2,3-dimethyl-2-phenyl-2,3-dihydro-4H-1,3-benzoxazin-4-one], the inhibition at 10 µM was 99%. For `O=C1c2cc(-c3nnc(C(F)F)o3)ccc2CN1NCc1ccc(F)cc1` [Example 6c, 6-[5-(difluoromethyl)-1,3,4-oxadiazol-2-yl]-2-{[(4-fluorophenyl)methyl]amino}-2,3-dihydro-1H-isoindol-1-one], the inhibition at 10 µM came to 99%. `Fc1cc(-c2nnc(C(F)F)o2)cc(-c2ncccc2OCC2CCOCC2)c1` [Example 7a, 2-{3-[5-(difluoromethyl)-1,3,4-oxadiazol-2-yl]-5-fluorophenyl]-3-[(oxan-4-yl)methoxy]pyridine]: the inhibition at 10 µM was 100%. As to `CN1C(=O)c2cc(-c3nnc(C(F)F)o3)ccc2OC1(C)c1ccc(F)cc1` (stereo not shown) [Example 7b, 6-[5-(difluoromethyl)-1,3,4-oxadiazol-2-yl]-2-(4-fluorophenyl)-2,3-dimethyl-2,3-dihydro-4H-1,3-benzoxazin-4-one], the inhibition at 10 µM was 100%. For the compound `O=C1c2cc(-c3nnc(C(F)F)o3)ccc2CN1N(Cc1ccc(F)cc1)Cc1ccc(F)cc1` [Example 7c, 2-{bis[(4-fluorophenyl)methyl]amino}-6-[5-(difluoromethyl)-1,3,4-oxadiazol-2-yl]-2,3-dihydro-1H-isoindol-1-one], the inhibition at 10 µM is 100%. The same measure for `Fc1cc(-c2nnc(C(F)F)o2)cc(-c2ncccc2OC2CCOCC2)c1` [Example 8a, 2-{3-[5-(difluoromethyl)-1,3,4-oxadiazol-2-yl]-5-fluorophenyl}-3-[(oxan-4-yl)oxy]pyridine]: 98%; for `CCN(Cc1ccccc1)N1Cc2ccc(-c3nnc(C(F)F)o3)cc2C1=O` [Example 8c, 2-[benzyl (ethyl)amino]-6-[5-(difluoromethyl)-1,3,4-oxadiazol-2-yl]-2,3-dihydro-1H-isoindol-1-one]: 95%. Regarding `Cc1ccc(COc2cccnc2-c2cc(F)cc(-c3nnc(C(F)F)o3)c2)cc1` [Example 9a], the inhibition at 10 µM is 79%. As for `O=C1c2cc(-c3nnc(C(F)F)o3)ccc2CN1NCc1cnn(C2CC2)c1` [Example 9c, 2-{[(1-cyclopropyl-1H-pyrazol-4-yl)methyl]amino}-6-[5-(difluoromethyl)-1,3,4-oxadiazol-2-yl]-2,3-dihydro-1H-isoindol-1-one], the inhibition at 10 µM turned out to be 97%. Under `Cc1cc(COc2cccnc2-c2cc(F)cc(-c3nnc(C(F)F)o3)c2)nn1C` [Example 10a, 2-(3-[5-(difluoromethyl)-1,3,4-oxadiazol-2-yl]-5-fluorophenyl}-3-[(1,5-dimethyl-1H-pyrazol-3-yl)methoxy]pyridine] stands 96%; under `CN1C(=O)c2cc(-c3nnc(C(F)F)o3)ccc2CN1c1ccc(F)cc1` [Example 10b, 7-[5-(difluoromethyl)-1,3,4-oxadiazol-2-yl]-3-(4-fluorophenyl)-2-methyl-3,4-dihydrophthalazin-1(2H)-one], 100%. Under `O=C1c2cc(-c3nnc(C(F)F)o3)ccc2CN1N(Cc1cnn(C2CC2)c1)Cc1cnn(C2CC2)c1` [Example 10c, 2-{bis[(1-cyclopropyl-1H-pyrazol-4-yl)methyl]amino}-6-[5-(difluoromethyl)-1,3,4-oxadiazol-2-yl]-2,3-dihydro-1H-isoindol-1-one] stands 97%.

In the case of `Fc1cc(-c2nnc(C(F)F)o2)cc(-c2ncccc2OCc2ccccn2)c1` [Example 11a, 2-{3-[5-(difluoromethyl)-1,3,4-oxadiazol-2-yl]-5-fluorophenyl}-3-[(pyridin-2-yl)methoxy]pyridine], the inhibition at 10 µM was determined as 94%. Turning to `O=C1NN(C2CCCCC2)Cc2ccc(-c3nnc(C(F)F)o3)cc21` [Example 11b, 3-cyclohexyl-7-[5-(difluoromethyl)-1,3,4-oxadiazol-2-yl]-3,4-dihydrophthalazin-1(2H)-one], the inhibition at 10 µM stood at 99%. Turning to `COCCOC(=O)N(Cc1ccc(F)cc1)N1Cc2ccc(-c3nnc(C(F)F)o3)cc2C1=O` [Example 11c, 2-methoxyethyl {6-[5-(difluoromethyl)-1,3,4-oxadiazol-2-yl]-1-oxo-1,3-dihydro-2H-isoindol-2-yl}[(4-fluorophenyl)methyl]carbamate], the inhibition at 10 µM amounted to 99%. With `Fc1cc(-c2nnc(C(F)F)o2)cc(-c2ncccc2OCC2CCOC2)c1` (stereo not shown) [Example 12a, 2-{3-[5-(difluoromethyl)-1,3,4-oxadiazol-2-yl]-5-fluorophenyl}-3-[(oxolan-3-yl)methoxy]pyridine], the inhibition at 10 µM is 99%.

`CN1C(=O)c2cc(-c3nnc(C(F)F)o3)ccc2OC1(C)c1ccccn1` (stereo not shown) [Example 12b, 6-[5-(difluoromethyl)-1,3,4-oxadiazol-2-yl]-2,3-dimethyl-2-(pyridin-2-yl)-2,3-dihydro-4H-1,3-benzoxazin-4-one]: the inhibition at 10 µM was 98%. As for `O=C(CC(F)(F)F)N(Cc1cnn(C2CC2)c1)N1Cc2ccc(-c3nnc(C(F)F)o3)cc2C1=O` [Example 12c, N-[(1-cyclopropyl-1H-pyrazol-4-yl)methyl]-N-{6-[5-(difluoromethyl)-1,3,4-oxadiazol-2-yl]-1-oxo-1,3-dihydro-2H-isoindol-2-yl}-3,3,3-trifluoropropanamide], the inhibition at 10 µM turned out to be 98%. As to `COCCOc1cccnc1-c1cc(F)cc(-c2nnc(C(F)F)o2)c1` [Example 13a, 2-{3-[5-(difluoromethyl)-1,3,4-oxadiazol-2-yl]-5-fluorophenyl}-3-(2-methoxyethoxy)pyridine], the inhibition at 10 µM is 92%.

`CN1C(=O)c2cc(-c3nnc(C(F)F)o3)ccc2CC1(C)c1ccc(F)cc1` (stereo not shown) [Example 13b, 7-[5-(difluoromethyl)-1,3,4-oxadiazol-2-yl]-3-(4-fluorophenyl)-2,3-dimethyl-3,4-dihydroisoquinolin-1(2H)-one]: the inhibition at 10 µM was 99%. Under `O=C(OCC(F)F)N(Cc1cnn(C2CC2)c1)N1Cc2ccc(-c3nnc(C(F)F)o3)cc2C1=O` [Example 13c, 2,2-difluoroethyl [(1-cyclopropyl-1H-pyrazol-4-yl)methyl]{6-[5-(difluoromethyl)-1,3,4-oxadiazol-2-yl]-1-oxo-1,3-dihydro-2H-isoindol-2-yl}carbamate] stands 99%.
